Measured values reported in patent US20250151722A1 (priority 2022, published 2025).
Where “and” joins values, the source holds several entries; their conditions need not be identical. Identical values can stand only once. Entries after “also recorded” stand apart in the source; their conditions may differ. Like-named read-outs stand apart in the source and are kept apart here.

Tests used:
[1] = tested on: A. parasiticus NRRL2999 strain; format: cell-based, Aspergillus parasiticus
[2] = tested on: A. flavus IFM47798 strain; test: Fungal growth (dry fungal weight) in liquid culture, Test Example 1; format: cell-based, Aspergillus flavus
[3] = tested on: A. parasiticus NRRL2999 strain
[4] = tested on: A. flavus MAFF111229 strain
[5] = tested on: A. flavus MAFF111229 strain; format: cell-based, Aspergillus flavus
[6] = tested on: A. flavus IFM47798 strain; format: cell-based, Aspergillus flavus; conditions: for Total AF Relative Value (%): 48 h, 28° C., untreated control = 100, mean ± SD, n = 4
[7] = tested on: A. flavus MAFF111229 strain; format: cell-based, Aspergillus flavus; conditions: untreated control = 100, mean ± SD, n = 4
[8] = alcohol 0.3 v/v %, 48 h, 28° C., untreated control = 100, mean ± SD, n = 4
[9] = alcohol 0.6 v/v %, 48 h, 28° C., untreated control = 100, mean ± SD, n = 4
[10] = alcohol 1 v/v %, 48 h, 28° C., untreated control = 100, mean ± SD, n = 4
[11] = alcohol 2 v/v %, 48 h, 28° C., untreated control = 100, mean ± SD, n = 4
[12] = alcohol 4 v/v %, 48 h, 28° C., untreated control = 100, mean ± SD, n = 4

Structure (SMILES) | Fungal Weight Relative Value (%) [2] | Fungal Weight Relative Value (%) [3] | Fungal Weight Relative Value (%) [4] | Fungal Weight Relative Value (%) [2, 8] | Fungal Weight Relative Value (%) [2, 9] | Fungal Weight Relative Value (%) [2, 10] | Fungal Weight Relative Value (%) [2, 11] | Fungal Weight Relative Value (%) [2, 12] | amount of aflatoxins produced [6] | Total AF Relative Value (%) ([6]; alcohol 0.3 v/v %) | Total AF Relative Value (%) ([6]; alcohol 0.6 v/v %) | Total AF Relative Value (%) ([6]; alcohol 1 v/v %) | Total AF Relative Value (%) ([6]; alcohol 2 v/v %) | Total AF Relative Value (%) ([6]; alcohol 4 v/v %) | other results
CCCO [1-Propanol] | 102.9 ± 12.0% and 118.1 ± 5.4% | 87.4 ± 1.8% and 86.4 ± 2.8% | 104.5 ± 6.5% and 103.9 ± 8.8% | – | – | – | – | – | – | – | – | – | – | – | Total AF Relative Value (%) [1]: 58.7 ± 9.5 % and 47.5 ± 6.5 %
CCC(C)O (stereo not drawn) [2-Butanol] | 66.1 ± 5.4% and 70.2 ± 4.2% | – | 56.2 ± 7.3% and 48.9 ± 8.7% | – | – | – | – | – | – | – | – | – | – | – | Total AF Relative Value (%) [5]: 0.0 ± 0.0 %
CC(C)(C)O [2-Methyl-2-Propanol] | – | – | – | 104.8 ± 7.9% | 101.0 ± 4.8% | 51.9 ± 15.5% | 0.0 ± 0.0% | 0.0 ± 0.0% | increase the amount of aflatoxins produced; also recorded: same tendencies as in the case of ethanol | – | – | – | – | – | –
CC(C)O [2-Propanol] | – | – | – | 126.2 ± 6.4% | 128.0 ± 11.6% | 103.7 ± 7.7% | 94.4 ± 8.3% | 0.0 ± 0.0% | increase the amount of aflatoxins produced; also recorded: same tendencies as in the case of ethanol | – | – | – | – | – | –
CCO [Ethanol] | – | – | – | – | – | – | – | – | increase the amount of aflatoxins produced; also recorded: conversely increased | 197.1 ± 25.9 % | 244.5 ± 13.2 % | 222.4 ± 20.9 % | 24.3 ± 10.5 % | 0.0 ± 0.0 % | growth of A. flavus [2]: not inhibited; growth of A. flavus ([2]; concentration of 4 v/v % or higher): the growth of A. flavus was inhibited; aflatoxin production [6]: the aflatoxin production was accordingly inhibited
CO [Methanol] | – | 93.3 ± 11.2% and 92.0 ± 6.9% and 100.0 ± 8.5% and 102.1 ± 1.6% and 102.9 ± 3.7% | 123.6 ± 6.8% and 123.6 ± 10.4% and 112.8 ± 10.4% and 98.0 ± 4.6% and 101.4 ± 3.5% | 103.7 ± 3.5% | 110.1 ± 6.7% | 128.4 ± 3.0% | 145.9 ± 11.4% | 103.7 ± 3.5% | – | 70.6 ± 12.1 % | 63.4 ± 12.7 % | 0.0 ± 0.0 % | 0.0 ± 0.0 % | 0.0 ± 0.0 % | Total AF Relative Value (%) ([5]; corn kernels sprayed with alcohol 20 μL per 1 g of kernels, 28° C., one week, positive control = 100, mean ± SD, n = 3): 1.0 ± 1.3 %; Total AF Relative Value (%) ([7]; alcohol 0.3 v/v %): 108.5 ± 5.8%; Total AF Relative Value (%) ([7]; alcohol 0.6 v/v %): 102.3 ± 5.0%; Total AF Relative Value (%) ([7]; alcohol 1 v/v %): 13.8 ± 0.8 %; Total AF Relative Value (%) ([7]; alcohol 2 v/v %): 0.0 ± 0.0 %; Total AF Relative Value (%) ([7]; alcohol 4 v/v %): 0.0 ± 0.0 %; Total AF Relative Value (%) ([1]; alcohol 0.3 v/v %, untreated control = 100, mean ± SD, n = 4): 86.3 ± 3.6 %; Total AF Relative Value (%) ([1]; alcohol 0.6 v/v %, untreated control = 100, mean ± SD, n = 4): 72.3 ± 1.9 %; Total AF Relative Value (%) ([1]; alcohol 1 v/v %, untreated control = 100, mean ± SD, n = 4): 31.1 ± 1.4 %; Total AF Relative Value (%) ([1]; alcohol 2 v/v %, untreated control = 100, mean ± SD, n = 4): 10.3 ± 1.3 %; Total AF Relative Value (%) ([1]; alcohol 4 v/v %, untreated control = 100, mean ± SD, n = 4): 3.4 ± 0.8 %
